Source: the supplement of paper PMC8671470

Columns and labels:
Assay in all cases: cell viability (% survival relative to DMSO control, bortezomib = 0%); higher = less cytotoxic
Details in all cases: 72 h
SHI-1 = tested on: SHI-1
Method in brief: (§1)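 Percent survival is reported as the mean of duplicate wells. Cells from 10 AML and 5 CML lines were plated in 384-well plates containing compounds at 1, 10, 100, 1000 or 10000 nM and kept for 72 h at 37 °C in 5% CO2. Readout used CellTiter-Glo luminescence, scaled so that vehicle equals 100% and a 10 µM positive control equals 0%.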

Mono-Mac-6 = tested on: Mono-Mac-6
Method in brief: as §1

K-562 = tested on: K-562
Method in brief: as §1

HL-60 = tested on: HL-60
Method in brief: as §1

Structure (SMILES)	cell viability (SHI-1; 1 nM) [%]	cell viability (SHI-1; 10 nM) [%]	cell viability (SHI-1; 100 nM) [%]	cell viability (SHI-1; 1000 nM) [%]	cell viability (SHI-1; 10000 nM) [%]	cell viability (Mono-Mac-6; 1 nM) [%]	cell viability (Mono-Mac-6; 10 nM) [%]	cell viability (Mono-Mac-6; 100 nM) [%]	cell viability (Mono-Mac-6; 1000 nM) [%]	cell viability (Mono-Mac-6; 10000 nM) [%]	cell viability (K-562; 1 nM) [%]	cell viability (K-562; 10 nM) [%]	cell viability (K-562; 100 nM) [%]	cell viability (K-562; 1000 nM) [%]	cell viability (K-562; 10000 nM) [%]	cell viability (HL-60; 1 nM) [%]	cell viability (HL-60; 10 nM) [%]	cell viability (HL-60; 100 nM) [%]	cell viability (HL-60; 1000 nM) [%]	cell viability (HL-60; 10000 nM) [%]
Clc1ccc2c(c1Cl)CNCC2	116	122	110	112	96.1	95.3	103	104	106	77.4	103	97.7	95.4	107	88.7	101	194	90.1	103	95.8
O=C(O)C(S)=Cc1c[nH]c2ccc(F)cc12	103	97.6	104	102	88.5	104	94.7	93.5	74.2	74.1	91	95.7	90.1	116	85.9	98.3	103	111	66.7	90.7
CC(C)Cc1sc(N)nc1-c1ccc(P(=O)(O)O)o1	106	98.3	106	98.7	104	97.6	85.3	95.2	101	86.6	104	118	109	103	92.5	56.2	90.1	72.8	105	67
Cl.OC[C@H]1NC[C@@H](O)[C@@H](O)[C@@H]1O [1-Deoxymannojirimycin hydrochloride]	105	96.3	98.7	110	89.5	108	89.9	109	87.2	96.2	93.7	70.4	104	103	91.6	98.5	79.5	102	124	80.5
CN(C)c1nc(O)c2[nH]cnc2n1 [2-Dimethylamino-6-hydroxypurine]	104	90.8	94.8	99.9	98.2	97.2	100	86.9	99.4	113	108	89.2	92.2	117	92	103	81.4	79.9	110	90.1
O=C(O)c1cc2sccc2[nH]1 [4H-thieno[3,2-b]pyrrole-5-carboxylic acid]	108	96.4	90.4	97	107	104	92.6	99.5	92.6	101	86.6	106	101	101	105	117	104	90.6	69.1	95.3
[N-]=[N+]=CC(=O)CC[C@H](N)C(=O)O [6-Diazo-5-oxo-L-norleucine]	110	101	103	104	99	88	90.2	92.4	97.8	104	70.8	99.6	99.5	104	92.5	64.7	83.2	135	97.5	106
Sc1ncnc2nc[nH]c12 [6-mercaptopurine]	113	98.6	102	66.2	32.6	97.2	97.7	85.9	53.7	15.5	110	88.9	102	39.9	8.69	144	85.8	118	54.7	15.2
O=C(O)CC[C@H](NC(=O)c1ccc([N+](=O)[O-])cc1)C(=O)O [(S)-2-(4-Nitrobenzamido)pentanedioic acid]	97.5	107	102	102	93.9	96	103	94.9	97.6	98	76.6	91.8	84.6	102	110	78	107	113	83.6	93.7
O=C1Nc2ccccc2/C1=C\NCCc1ccc(O)c(O)c1 [AC1NZZMF]	88.8	108	89	103	90.8	105	102	102	96.9	74.4	90.1	112	99.7	122	96.6	76.8	102	82.5	96.8	86.8
Cc1ccc(S(=O)(=O)NC2c3ccccc3Oc3ccccc32)cc1 [AH-7614]	105	110	105	97.1	85.5	101	95.7	111	94.9	101	92	95.9	89.9	98.1	76.4	103	112	87.8	94.5	86.2
C[C@]12CC[C@H](O)CC1=CC[C@@H]1[C@@H]2CC[C@]2(C)C(c3cccnc3)=CC[C@@H]12 [Abiraterone]	119	108	106	108	112	97.7	101	85.2	96.1	108	109	113	107	112	89.4	142	97.7	136	80.3	124
O=C(COc1ccc(C(=O)c2ccccc2)cc1)NC1CCN(Cc2ccccc2)CC1 [AdipoRon]	92.5	104	96	103	71.7	96.3	101	99.9	98.1	90.7	90.2	105	79.7	104	58.3	102	118	81.9	111	70
CCOC(=O)[C@H]1O[C@@H]1C(=O)N[C@@H](CC(C)C)C(=O)NCCC(C)C [Aloxistatin]	102	92.6	104	102	92.5	97.3	108	104	89	81.7	90.9	112	85.4	105	99.1	103	120	108	114	74
N[C@](CCCCB(O)O)(CCN1CCCCC1)C(=O)O [Arginase inhibitor 1]	92	105	90.1	110	92.8	101	83.8	93.1	93.8	94.5	120	102	93.1	90.6	88.4	131	104	73.9	106	117
Cc1noc2c1-c1ccccc1C(c1ccc(Cl)cc1)=N[C@H]2CC(N)=O [CPI-0610]	105	94.5	88.8	44.4	21.8	99.7	89.3	65.7	17	15.9	87.7	88.2	80.7	32.1	34.5	110	102	69.4	33	16.1
Nc1ccn([C@@H]2O[C@H](CO)[C@@H](O)[C@@H]2O)c(=O)n1 [Cytarabine]	102	92.6	58	14.6	2.46	95.1	86.4	79.8	19.1	3.49	104	70	57.6	32.4	24.4	100	95.1	82.3	28	0.475
CCOc1ccc(Cc2cc([C@@H]3O[C@H](CO)[C@@H](O)[C@H](O)[C@H]3O)ccc2Cl)cc1 [Dapagliflozin]	99.4	114	85.2	91.1	107	91.5	95.1	87.5	91.7	88.8	98.9	108	81.4	101	94.6	101	86.8	81.3	94.4	104
CCN(CC)CCN(Cc1ccc(-c2ccc(C(F)(F)F)cc2)cc1)C(=O)Cn1c(SCc2ccc(F)cc2)nc(=O)c2c1CCC2 [Darapladib]	107	107	97.4	90.6	-0.412	97	90.9	101	93.3	-0.318	99.1	122	81.6	73.6	-0.273	101	95.7	101	81.9	-0.402
O=C(O)C(Cl)Cl [Dichloroacetate]	99.7	104	96.8	101	103	92.4	92.4	113	98.8	102	96.5	108	93	96.2	105	96.5	115	104	109	120
O=C1Oc2ccccc2C(=O)C1CC1C(=O)Oc2ccccc2C1=O (stereo not given) [Dicumarol]	95.8	105	104	106	105	103	111	86.5	95.7	106	95.1	106	97.2	100	95.8	98.3	102	101	104	112
CC12CCC(O)CC1CCC1C2CCC2(C)C(C3=CC(=O)OC3)CCC12O (stereo not given) [Digitoxigenin]	108	108	103	4.47	-0.733	111	89.6	83	1.4	-1.27	94.8	106	77.1	3.12	-1.21	101	105	103	1.05	-1.85
C[C@H]1O[C@@H](O[C@H]2[C@@H](O)C[C@H](O[C@H]3[C@@H](O)C[C@H](O[C@H]4CC[C@@]5(C)[C@H](CC[C@@H]6[C@@H]5C[C@@H](O)[C@]5(C)[C@@H](C7=CC(=O)OC7)CC[C@]65O)C4)O[C@@H]3C)O[C@@H]2C)C[C@H](O)[C@@H]1O [Digoxin]	115	94.9	17.8	0.649	0.63	94.6	100	13	-0.503	-0.351	95.2	107	41.8	-0.121	0.146	104	107	-0.615	-0.309	-0.00704
O=c1c2ccccc2[se]n1-c1ccccc1 [Ebselen]	107	96.5	106	92.6	88.6	99.1	93.8	103	98.1	84.6	96.6	102	91	90.5	72.3	107	94.8	102	95.6	77.6
Clc1ccc(COC(Cn2ccnc2)c2ccc(Cl)cc2Cl)cc1 (stereo not given) [Econazole]	112	91	98.8	87.2	62.1	102	92.1	86.7	78.4	58.8	97.4	89.8	93.1	69	38.1	120	80.3	109	81.2	41.5
C#Cc1cnc(O)nc1O [Eniluracil]	97.7	106	114	103	102	104	125	105	106	97.4	101	113	113	102	94.5	112	134	123	95.1	111
